Data published in publication PMC11767451, “Novel Approaches to Monitor Pharmacokinetics and Metabolism of Gemcitabine-Ibandronate Conjugate in Mice and Dogs” (Molecules, 2025).
Like-named read-outs stand apart in the source and are kept apart here.

Legend:
[1] = Stability in mouse plasma (accelerated, freeze-thaw, frozen PK samples); format: in vitro ADME; conditions: for %-ACC, frozen PK sample stability: mouse plasma PK samples re-extracted after 1.5 years at <−70 °C; for %-ACC (% accuracy vs nominal): 3 freeze-thaw cycles (<−70 °C / bench)
Experimental: For stability testing, QC samples were prepared by spiking plasma with QC stock solutions. These stability samples were stored for the predetermined time periods before extraction (accelerated stability and freeze–thaw stability) or after extraction (autosampler stability) and were run with freshly prepared calibrator standards. For accelerated stability, samples were stored at 4 °C and at room temperature for 4 h and 24 h prior to sample extraction. […] Assay A compounds (GEM-IB and IB) were also tested at 1 h and 2 h exposed to 4 °C and at room temperature to evaluate for which duration GEM-IB is stable.
Freeze–thaw cycle stability was assessed by storing the stability samples overnight in the freezer (<−70 °C) and thawing them the next day on the bench. Once thawed, samples were placed back into the freezer. This was carried out for three freeze–thaw cycles for all compounds.
To assess the stability of study samples, PK samples were re-extracted after storage at <−70 °C for 1.5 years (see Supplementary Table S4).
Method development and validation was conducted following applicable FDA guidelines for bioanalytical assays, as considered fit for purpose. Specificity. Endogenous interferences were excluded by analysis of blank plasma from 6 different individual lots of plasma. The lower limit of quantification (LLOQ) was determined as the lowest concentration consistently achieving an accuracy better than ±20% of the nominal concentration, with imprecision ≤20%. Predefined acceptance criteria. The performance of the assay was considered acceptable if intra- and inter-day imprecision (coefficient of variance, %CV) at each concentration was ≤15%, except at the LLOQ (≤20%). Intra- and inter-day accuracy had to be ±15% of the nominal value, except at the LLOQ (±20%). Calibration curves had to have a correlation coefficient (r) of 0.99 or better. Analytical recovery and imprecision. Intra- and inter-day analytical accuracy and imprecision were tested at least at four concentration levels depending on the LLOQ for each compound. Intra-day imprecision and accuracy were determined with n = 6 per QC level. Inter-day imprecision and accuracy were measured over 3 days, with six replicates for each QC concentration (n = 18). Extraction efficiency and matrix effect. Extraction efficiency for GEM-IB and metabolites was established by comparing the signals of the analytes after the extraction of QCs (n = 6/concentrations), with the signals of the extracted blank matrix spiked with the respective concentrations of analytes after the extraction procedure. The matrix effect was determined by comparing the analyte LC-MS/MS signal after spiking of the analyte into the extracted blank matrix (matrix from 6 different individual lots, analyte concentrations as for the QC samples) with the HPLC-MS/MS signal of the same amount of analyte in neat solution [25]. Carry-over. Carry-over was assessed by injecting blank buffer samples after analysis of the highest calibrators. Carry-over was considered insignificant if there was no signal at the relevant retention times exceeding 20% of the analyte signals at the LLOQ. Stability. QC samples were freshly prepared. One set was extracted and was analyzed immediately to determine baseline signals.

[2] = Proof-of-concept dog PK study, plasma levels of GEM-IB and metabolites by HPLC-MS/MS; format: in vivo, beagle dogs; conditions: for half-life: dog, plasma, 5 mg/kg; for Cmax: analyte = parent or metabolite; for AUC: over the observation period
Experimental: Assay A (GEM-IB and IB): The extraction of calibration standards, quality control samples, and PK study samples was identical. Plasma, quality control stocks, and calibrator stocks were removed from the storage freezer and kept at room temperature until fully thawed. Aliquots of 100 μL of standards/quality control or blank sample were transferred into a 1.5 mL low-binding polypropylene vial with a conical bottom and snap-on lid. An amount of 10 µL of the of the internal standard solution (15 and 10 µg/mL of IB-D3 and ATP-IS, respectively) was added and mixed. For protein precipitation, 50 μL of methanol was added and then samples were vortexed for 10 min. This was followed by centrifugation at 25,000× g for ten minutes at 4 °C (Thermo Scientific MR 23i Centrifuge, Thermo Scientific, Waltham, MA, USA). To remove remaining protein, the supernatant was transferred to 10,000 molecular weight cut off (MWCO) centrifugal filters (800 µL volume, PES 10,000 with 2.0 mL receiver tubes, Analytical Sales and Services, Flanders, NJ, USA) and centrifuged again at 25,000× g for ten minutes at 4 °C. The filtrate was transferred into HPLC vials and placed into the HPLC autosampler maintained at 4 °C.
Assay B (GEMMP, GEM dFdUMP and dFdU): The extraction of calibration standards and quality control samples was identical to that of study samples. An amount of 200 µL of plasma sample was added to a 1.5 mL snap-top Eppendorf tube with 100 µL of protein precipitation solution. The samples were then vortexed for five minutes followed by centrifugation at 25,000× g for ten minutes at 4 °C. Hereafter, supernatants were transferred to 10K Amicon centrifugal filters (Merck-Millipore, Burlington, MA, USA) and centrifuged at the same settings for 60 min. The filtrates were then transferred into HPLC vials for analysis.
Assay A (GEM-IB and IB): Quantification of the analytes was carried out using high-performance liquid chromatography–tandem mass spectrometry (HPLC-MS/MS). Chromatography was performed using an Agilent 1260 Infinity II bio-inert HPLC system (Agilent Technologies, Santa Clara, CA, USA) on a Hypercarb Porous Graphitic Carbon HPLC column (3 µm, 2.1 × 50 mm, Thermo Scientific, Waltham, MA, USA). The HPLC system consisted of an Agilent 1260 Infinity II bio-inert quaternary pump, an Agilent 1260 Infinity II bio-inert column oven, and an Agilent 1260 Infinity II bio-inert autosampler (Agilent Technologies, Santa Clara, CA, USA). An amount of 10 µL of the sample extracts was injected. The column was maintained at 22 °C. HPLC-MS-grade water supplemented with 10 mM hexafluoroisopropanol (HFIP) and 0.05% (v/v) diethyl amine (DEA) at pH 9.4 was used for the aqueous mobile phase (Buffer A) and HPLC-grade acetonitrile was used for the organic mobile phase (Buffer B). The flow rate was set to 400 µL/min throughout the assay. The initial settings were 98% Buffer A and 2% organic Buffer B for the first two minutes. During the following 0.7 min, the organic Buffer B was increased to 30%. At minute 3.5, the gradient reached 98% Buffer B, which was kept for 0.5 min, and at minute 4.2 the column was re-equilibrated to starting conditions for 2.8 min until the next injection. The HPLC system was connected to a Sciex a 5500+ triple quadrupole mass spectrometer (SCIEX, Concord, ON, Canada) via a turbo electrospray ionization source (SCIEX) operated in the negative electrospray ionization (ESI) mode. Data were acquired in negative multiple reaction monitoring (MRM) mode and all compounds were detected as [M–H ]^−. The ion transitions used during the multiple reaction monitoring mode were m/z = 318→236, 321→239, 643→342, and 521→79 for IB, IB-D3, GEM-IB, and adenosine-^13C10,^15N5 5′-triphosphate (^13C10-^15N5-ATP), respectively. The dwell time for analysis was set to 50 ms. The curtain gas was kept at 20 psi and the ion source gas at 55 psi. The ion spray voltage was −4500 volts, and the temperature of the ion source was set to 400 °C. […]

[3] = after GEM-IB 5 mg/kg 30 min i.v. infusion
[4] = beagle, iv, after GEM-IB 5 mg/kg 30 min i.v. infusion, read-out: T1/2 (converted)
[5] = beagle, iv, after GEM-IB 5 mg/kg 30 min i.v. infusion
[6] = mouse plasma, 2 hours 4°C / on ice (IB and GEM-IB, footnote)
[7] = mouse plasma, 2 hours RT (IB and GEM-IB, footnote)
[8] = beagle, iv, after the end of the 30 min i.v. infusion of GEM-IB 5 mg/kg, read-out: half-life

SMILES	%-ACC, frozen PK sample stability [1]	%-ACC (% accuracy vs nominal) ([1]; mouse plasma)	%-ACC (percent mean accuracy vs nominal) ([1]; mouse plasma, 4 hours 4°C)	%-ACC (percent mean accuracy vs nominal) ([1]; mouse plasma, 4 hours RT)	%-ACC (percent mean accuracy vs nominal) ([1]; mouse plasma, 24 hours 4°C)	%-ACC (percent mean accuracy vs nominal) ([1]; mouse plasma, 24 hours RT)	Rate Constant [2, 3]	half-life [2, 4]	Tmax [2, 5]	Cmax [2, 5]	AUC [2, 5]	%-ACC (percent mean accuracy vs nominal) [1, 6]	%-ACC (percent mean accuracy vs nominal) [1, 7]	half-life [2, 8]	also measured
Nc1ccn([C@@H]2O[C@H](CO)[C@@H](O)C2(F)F)c(=O)n1 [GEM, gemcitabine]	94.2% ± 11.8	103.4%	94.5%	89.3%	87.9%	91.0%	0.5 h⁻¹	90.7 min	30 min	684 ng/mL	1620 ng·h/mL				
CCCCCN(C)CCC(O)(P(=O)(O)O)P(=O)(O)OP(=O)(O)OC[C@H]1O[C@@H](n2ccc(N)nc2=O)C(F)(F)[C@@H]1O (some centres unmarked) [GEM-IB]		16.9%			2.9%	0.0%	50.6 h⁻¹	0.84 min	30 min	795 ng/mL	295 ng·h/mL	64.2%	31.0%	< 1 min	percent of the nominal concentration ([1]; mouse plasma, 1 h on ice): 89.2% ± 7.0; time stable on ice ([1]; mouse plasma, on ice): up to 1 h; clearance [2, 5]: 284 mL/min/kg; Vd ([2]; beagle, iv, after GEM-IB 5 mg/kg 30 min i.v. infusion, read-out: Vdss): 1.93 L/kg
Nc1ccn([C@@H]2O[C@H](COP(=O)(O)O)[C@@H](O)C2(F)F)c(=O)n1 [GEMMP, gemcitabine-5′-phosphate]	failed the criteria	92.4%	91.9%	87.9%	91.4%	88.1%			30 min	224 ng/mL	83 ng·h/mL				plasma values after the infusion period [2, 3]: below the LLOQ
CCCCCN(C)CCC(O)(P(=O)(O)O)P(=O)(O)O [IB, ibandronate]		94.5%			99.7%	101.7%	0.7 h⁻¹	55.9 min	30 min	4740 ng/mL	5720 ng·h/mL	97.0%	106.4%	55 min	accelerated stability, result in words ([1]; mouse plasma, up to 24 h at 4 °C / on ice and room temperature): stable; freeze–thaw stability, result in words ([1]; one and two freeze–thaw cycles, matrix not stated, presumably mouse plasma): stable
O=c1ccn([C@@H]2O[C@H](CO)[C@@H](O)C2(F)F)c(=O)[nH]1 [dFdU, 2′,2′-difluoro-2′-deoxyuridine]	failed the criteria	109.5%	84.5%	83.8%	87.0%	85.2%	0.1 h⁻¹	591 min	270 min	330 ng/mL	6570 ng·h/mL				
O=c1ccn([C@@H]2O[C@H](COP(=O)(O)O)[C@@H](O)C2(F)F)c(=O)[nH]1 [dFdUMP, 2′,2′-difluoro-2′-deoxyuridine-5′-phosphate]	failed the criteria	87.7%	83.0%	80.5%	81.9%	81.5%	7.0 h⁻¹	5.94 min	30 min	23 ng/mL	11 ng·h/mL				
